Data taken from publication PMC6934184, “Selective DNA-PKcs inhibition extends the therapeutic index of localized radiotherapy and chemotherapy” (The Journal of Clinical Investigation, 2019).

Molecular target: T1, AXL R499C (Homo sapiens, UniProt P30530, R499C)
T1 construct: purchased Thermo Fisher Scientific (Life Technologies) SelectScreen
Assay: SelectScreen LanthaScreen
Assay type: binding
Conditions: read-out: % displacement
Procedure, shortened: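 Percent values come from Thermo SelectScreen profiling of NU5455, combining activity and binding assays. CSF1R was run in Z'LYTE format at Km app ATP, and CAMK1 in Adapta format with ATP listed at 10.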

T1 sequence (P30530 26-894 R499C): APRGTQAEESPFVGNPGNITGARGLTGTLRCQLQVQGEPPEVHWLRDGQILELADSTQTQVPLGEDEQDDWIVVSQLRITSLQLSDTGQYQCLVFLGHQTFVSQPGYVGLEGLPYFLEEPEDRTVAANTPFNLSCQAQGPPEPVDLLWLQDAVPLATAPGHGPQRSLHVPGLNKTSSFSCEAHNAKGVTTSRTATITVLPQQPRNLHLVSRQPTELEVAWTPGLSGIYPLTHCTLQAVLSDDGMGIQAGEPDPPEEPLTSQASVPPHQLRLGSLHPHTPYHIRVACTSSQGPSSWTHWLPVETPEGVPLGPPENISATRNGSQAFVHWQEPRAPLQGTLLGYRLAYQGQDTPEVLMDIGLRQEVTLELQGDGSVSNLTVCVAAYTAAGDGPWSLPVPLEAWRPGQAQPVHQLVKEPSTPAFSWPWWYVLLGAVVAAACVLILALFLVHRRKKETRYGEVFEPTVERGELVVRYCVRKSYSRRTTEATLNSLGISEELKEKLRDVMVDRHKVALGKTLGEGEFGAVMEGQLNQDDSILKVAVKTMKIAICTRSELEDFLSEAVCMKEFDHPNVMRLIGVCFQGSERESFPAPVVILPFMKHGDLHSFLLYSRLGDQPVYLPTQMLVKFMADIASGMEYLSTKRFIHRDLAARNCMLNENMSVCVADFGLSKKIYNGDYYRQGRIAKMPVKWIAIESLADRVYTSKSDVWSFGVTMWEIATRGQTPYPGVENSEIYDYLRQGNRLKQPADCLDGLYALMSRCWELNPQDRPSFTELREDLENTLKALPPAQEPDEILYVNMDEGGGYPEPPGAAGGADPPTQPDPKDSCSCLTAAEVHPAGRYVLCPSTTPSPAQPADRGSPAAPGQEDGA

CN(C(=O)CN1CCOCC1)c1ccc2sc3c(-c4cccc5c(=O)cc(N6CC7CCC(C6)O7)oc45)cccc3c2c1 [NU5455]
inhibition at 1 µM: -2.7%
